Reference: patent publication US20240174639A1, “PYRIDINE DERIVATIVES USEFUL AS HCN2 MODULATORS” (King's College London, priority 2021, published 2024)

How the values were obtained:
Black6 mice = details: mouse, in vivo, ip; cited from earlier work
[1] = Evaluation of CNS penetration: plasma, brain and auditory nerve levels (Example 55); assay type: in vivo; details: other: injection, guinea pig, 30 min after injection, preliminary, n=2
Description: Ivabradine in guinea pig plasma, brain (somatosensory cortex) and auditory nerve were assayed at 30 min after injection, the time used in Example 130. Ratios of total concentrations in preliminary experiments for plasma:brain:auditory nerve were 1:0.12:0.57 (n=2). The small amount (12% of plasma level) detected in brain is largely accounted for by the presence of ivabradine within the vascular supply of the brain. As in other species, therefore, ivabradine is strongly excluded from guinea pig brain because of its hydrophilicity and Pgp substrate activity; see Young, G. T., Emery, E. C., Mooney, […]. […] Pain 155, 1708-1719, (2014).

guinea pigs [2] = test: Tinnitus, short-term salicylate model, GPIAS test (Example 54); assay type: in vivo; details: salicylate 350 mg/kg i.p., 2 h, ivabradine 5 mg/kg s.c.
Excerpt: (§1) Tinnitus in guinea pigs was monitored using the gap induced inhibition of the acoustic startle (GPIAS) test (see FIG. 5). GPIAS is reduced when tinnitus was present; see Berger, J. I. et al. Effects of the cannabinoid CB1 agonist ACEA on salicylate ototoxicity, hyperacusis and tinnitus in guinea pigs. Hearing research, (2017), and Coomber, B. et al. Neural changes accompanying tinnitus following unilateral acoustic trauma in the guinea pig. Eur J Neurosci 40, 2427-2441, (2014).
(§2) In FIG. 5, sound stimulus (above) and corresponding pinna reflex (below) are shown in freely moving guinea pigs. Stimuli with no gap and gap are presented in a randomised order. Traces contaminated by movement (the upper trace in “no gap”) were removed before analysis.
Tinnitus was induced within 1-2 hours in humans by high doses of salicylate. A similar short-term tinnitus model was implemented in guinea pigs by i.p. injection of salicylate. In all animals, salicylate caused behavioural inhibition of GPIAS (see bar 2 in FIG. 6).
Salicylate (350 mg/kg, i.p.) impairs behavioural gap detection 2 h after salicylate administration (see bar 2 in of FIG. 6). Gap detection was restored by blocking HCN channels with ivabradine (5 mg/kg, s.c.).

guinea pigs [3] = test: Tinnitus, noise-exposure model, GPIAS test (Example 54); assay type: in vivo
Excerpt: as §1, §2
The noise-exposure model is more clinically relevant than the salicylate model, as it parallels a common cause of tinnitus in humans. A second important point is that it is long-term, while tinnitus induced by salicylate is rapidly reversed following salicylate exposure.
GPIAS returns following drug wash-out (see bar D in FIG. 7).

adult mice = assay type: in vivo; details: tone pulses 3 kHz to 42 kHz

COc1cc2c(cc1OC)CC(=O)N(CCCN(C)C[C@H]1Cc3cc(OC)c(OC)cc31)CC2 [ivabradine]
therapeutic window between analgesia and bradycardia (Black6 mice): little therapeutic window | Kp at 30 min ([1]; auditory nerve / plasma, read-out: ratio of total concentrations auditory nerve:plasma): 0.57 | Kp at 0.5 h ([1]; brain (somatosensory cortex) / plasma, somatosensory cortex, read-out: ratio of total concentrations brain:plasma): 0.12 | effect on GPIAS (behavioural gap detection) (guinea pigs [2]): reversed GPIAS | effect on reduced GPIAS following noise exposure (guinea pigs [3]; guinea pigs with impaired GPIAS after unilateral noise exposure, 5 mg/kg s.c.): rapidly and completely reversed | effect on GPIAS in control experiments (guinea pigs [3]; noise-exposed guinea pigs showing no behavioural evidence of tinnitus, n=3): without effect on GPIAS | effect on ABR threshold or latency (adult mice): no significant difference
